Source: patent US20130012479A1, “POLYMORPHS OF 6-(PIPERIDIN-4-YLOXY)-2H-ISOQUINOLIN-1-ONE HYDROCHLORIDE” (SANOFI, priority 2011, published 2013)
Entries after “also recorded” stand apart in the source; their conditions may differ. Counter-ions that a name gives are not always drawn.

Tests used:
Type in all cases: physicochemical
[1] = Temperature-resolved XRPD, DSC and TGA on heating; details: for solid-solid transition prior to melting: on heating
Description: In this temperature range, transformation to phase 3 was observed as determined by XRPD.
(§1) All X-ray powder diffraction was performed with Stoe Stadi-P transmission diffractometers using CuKα1 radiation (Lambda is 1.54060 Angström). For room temperature powder diffraction, linear position sensitive detectors were used while for temperature-resolved XRPD image plate position sensitive detectors (IP-PSDs) were used. Unless stated otherwise, X-ray powder diffraction was performed at room temperature. Dry samples were investigated in a flat preparation whereas suspensions were investigated in quartz glass capillaries. The measured data were evaluated and plotted with the Software WinXPOW V2.12.
The thermogravimetric analyses were performed with a METTLER TGA851e (module TGA/SDTA851e/SF1100/042). 100 μl Al crucibles sealed with lid were used. The sample changer punches a pinhole into the lid immediately before the start of the measurement. The oven cell is purged with a nitrogen gas flow of about 50 mL/min. The measurements typically start with a hold time of about 25 min at 25° C., followed by heating of the sample with a rate of 10°/min.
All DSC measurements were performed with a Mettler DSC822e (module DSC822e/700/109/414935/0025). If not indicated differently, 40 μl Al crucibles with sealed lid and hole were used. All measurements were carried out in a nitrogen gas flow of 50 mL/minute. The heating rate was 10° C./minute unless indicated otherwise. Temperature and heat flow were calibrated via the melting peak of an indium reference

[2] = Dynamic vapor sorption (DVS) water vapor sorption and desorption isotherms; details: 25° C.
Description: Moreover, the dihydrate may also be characterized by its DVS (dynamic vapor sorption) water vapor sorption and desorption isotherms measured at 25° C. as shown in FIG. 3. Before starting the sorption cycle the dihydrate sample is treated with dry nitrogen gas resulting in a transformation into phase 2 as shown by humidity resolved XRPD. […] A weight loss starts below 20% relative humidity and becomes strong below 10%, especially below 5%. The change in mass at low relative humidity is completely reversible and when the humidity increases again, the rehydration proceeds rapidly with small samples. However, for bulk samples rehydration of over-dried samples can take considerably longer and rehydration may require several days. Almost identical water sorption and desorption isotherms are observed at 40° C.
Moreover, phase 3 may also be characterized by its DVS (dynamic vapor sorption) water vapor sorption and desorption isotherms measured at 25° C. […] With decreasing humidity the dihydrate converts back at low humidity (below about 10% r.h.) into phase 2 (cycle 1, desorption). Phase 2 then converts into the dihydrate with increasing humidity and along the same isotherm it converts back with decreasing humidity into polymorph 2 (cycle 2, see also FIG. 3)
Moisture sorption/desorption isotherms were recorded on a DVS-1 from Surface Measurement Systems. […] Typical total measurement times for both cycles are about 20-30 hours.

[3] = Humidity-controlled (humidity-resolved) XRPD in a humidity chamber; details: for time until transformation into the dihydrate at 95% relative humidity: sample held at 95% r.h.
Description: When humidity-controlled XRPD was performed at 25 and 40° C., widely identical results were obtained.
Exposure to elevated humidity causes transformation to the dihydrate as determined with humidity-controlled XRPD performed at 25° C. […] Phase 1 transformed into the dihydrate after about 15 min at 95%, which in turn changed to phase 2 after about 40 min at 2% r.h.
Exposure to elevated humidity causes transformation to the dihydrate as determined by humidity-controlled XRPD at 25° C. […] As a result phase 3 transformed into the hydrate after about 30 min at 95%, which in turn changed to phase 2 after about 30 min at 2% r.h.
Exposure to elevated humidity causes transformation to the dihydrate as determined by humidity-controlled XRPD. […] As a result phase 4 transformed into the dihydrate after about 15 min at 95%, which in turn changed to phase 2 after about 20 min at 2% r.h.
as §1

[4] = Storage under usual storage conditions (25° C./65% relative humidity)
From the text: Moreover, the corresponding amorphous material is hygroscopic and the water content varies much stronger with the relative humidity compared to the dihydrate. This water uptake and variability in water content makes precise dosing during drug product manufacturing difficult. […] Accordingly, the crystalline dihydrate is therefore the preferred solid form for drug product manufacturing.

[5] = Maturation experiments (slurry conversion) of suspensions; details: for solid phase after maturation: 20° C., 35 days; for relative stability of the phase from maturation experiments: suspensions of phase mixtures in dry organic solvents, temperature range from 0 to 40° C.
Description: By maturation experiments (slurry conversion) at the given temperature the relative stability of the polymorphs of compound (I) and the hydrate was investigated.
The following maturation experiment was performed by stirring the suspension under the specified conditions, starting from the dihydrate. The sample was investigated by XRPD in suspension, after vacuum filtration as well as after drying over night at 40° C. in vacuum (<50 mbar). The isolated material was also investigated by DSC and TGA.
a) Maturation of 0.210 g dihydrate of compound (I) in 0.4 mL of water at 20° C. for 35 days. Similar, maturation of the dihydrate was done in water/methanol (vol/vol 1:1) and in water/ethanol (vol/vol 1:1).
The following maturation experiments were performed by stirring the suspension under the specified conditions and isolating the solid by vacuum filtration, starting from dihydrate of compound (I). The sample was investigated by XRPD in suspension, after vacuum filtration as well as after drying. The isolated material was also investigated by DSC and TGA.
(b) Maturation of 0.203 g of dihydrate of compound (I) in 1.2 mL of methanol at 20° C. for 35 days. (c) Maturation was also done as in (b) by using ethanol, 1-propanol or 2-propanol.
The following maturation experiments of suspensions of phase mixtures of the dihydrate of compound (I) and phases consisting of polymorphs 1, 3 and 4 were performed at 0, 20 and 40° C. The product was isolated by vacuum filtration and analyzed after drying.
e) Maturation of a mixture of 0.3 mg phase 1, 23.9 mg phase 3, 29.9 mg phase 4 and 27.9 mg of the dihydrate in 0.7 mL 2-propanol at 0° C. for 2 weeks. f) Maturation of a mixture of 0.3 mg phase 1, 27.2 mg phase 3, 18.1 mg phase 4 and 29.6 mg of the dihydrate in 2.0 mL 2-butanol at 0° C. for 2 weeks. g) Similar experiments as in e) and f) were done with corresponding mixtures of phase 1, phase 3, phase 4 and the dihydrate in 2-propanol and 2-butanol at 20° C. and at 40° C., respectively

[6] = Drying of the dihydrate, retention of crystal structure; details: dihydrate dried
From the text: In a further embodiment of the hydrate the water content is 11.4% (w/w). In a further embodiment the hydrate contains 2.0 molecules water per molecule (I). Although the hydrate phase typically contains about 10-12.5% water it can also occur with lower water content. The crystal structure of the hydrate remains even if the dihydrate is dried and the remaining water content is down to about 3%. Water uptake is reversible if humidity in the environment is raised again. The water content in the isolated product depends on the drying conditions used during work up of the hydrate after crystallisation.

[7] = Stability of the solvate outside the mother liquor; details: in the presence of humidity starts to transform to the hydrate
From the text: Thus, a further aspect of the present invention relates to the use of the methyl acetate solvate of compound (I) for the production of the hydrate, for example by subjecting it to conditions, such as an elevated temperature and/or humidity which facilitate the loss of methyl acetate and attracting water.

[8] = Suspension in water, phase transformation
Description: (§2) Also storage of phase 3 at 20° C. and 75% relative humidity caused complete conversion to the dihydrate within 3 weeks. The rate of conversion correlates with the relative humidity. When suspended in water, complete transformation into the dihydrate was observed almost immediately (<10 min).

[9] = Storage at 20° C. and 75% relative humidity
Description: Also storage of phase 1 at 20° C. and 75% relative humidity caused complete conversion to the dihydrate within 3 weeks. The rate of conversion correlates with the relative humidity.
as §2
Also storage of phase 4 at 20° C. and 75% relative humidity caused complete conversion to the dihydrate within 3 weeks. The rate of conversion apparently correlates with the relative humidity.

[10] = listed as phase 1, hydrochloride
[11] = listed as phase 3, hydrochloride
[12] = listed as phase 4, hydrochloride

Structure (SMILES): O=c1[nH]ccc2cc(OC3CCNCC3)ccc12 [1,4-dioxane solvate, 6-(Piperidin-4-yloxy)-2H-isoquinolin-1-one hydrochloride×0.5 1,4-dioxane solvate]
- stability of the solvate on heating [1]: relatively stable

Structure (SMILES): O=c1[nH]ccc2cc(OC3CCNCC3)ccc12 [amorphous material, 6-(Piperidin-4-yloxy)-2H-isoquinolin-1-one hydrochloride]
- hygroscopicity / water content as a function of relative humidity ([2]; hydrochloride): hygroscopic

Structure (SMILES): O=c1[nH]ccc2cc(OC3CCNCC3)ccc12 [dihydrate, 6-(Piperidin-4-yloxy)-2H-isoquinolin-1-one hydrochloride dihydrate]
- relative humidity at which reversible transformation into phase 2 was observed ([3]; 25 and 40° C.): 2%
- time until the dihydrate changed to phase 2 at 2% r.h. ([3]; sample held at 2% r.h., hydrochloride dihydrate): about 30 min
- relative humidity below which the dihydrate converts into phase 2 ([2]; cycle 1, desorption): below 10%
- relative humidity below which weight loss starts ([2]; desorption cycle): below 20%
- hygroscopicity / water content as a function of relative humidity ([2]; hydrochloride dihydrate): quite constant water content
- water content in the desorption cycle ([2]; relative humidities between 95% and 20%): almost constant
- stability under usual storage conditions [4]: stable for more than two years
- decomposition on storage ([4]; more than two years): no detectable decomposition
- solid phase after maturation ([5]; 2-butanol, after drying): Polymorph 4 was obtained
- solid phase after maturation ([5]; methanol, ethanol, 1-propanol or 2-propanol): polymorph 3 was obtained
- solid phase after maturation ([5]; water, water/methanol (1:1) or water/ethanol (1:1)): remained as dihydrate
- temperature below which the form is stable [1]: below 90 °C
- temperature at which transformation to phase 3 starts ([1]; temperature-resolved XRPD, on heating with loss of water): about 90 °C
- remaining water content down to which the crystal structure of the hydrate remains [6]: about 3%

Structure (SMILES): O=c1[nH]ccc2cc(OC3CCNCC3)ccc12 [methyl acetate solvate, 6-(Piperidin-4-yloxy)-2H-isoquinolin-1-one hydrochloride]
- stability of the solvate outside the mother liquor [7]: only moderately stable

Structure (SMILES): O=c1[nH]ccc2cc(OC3CCNCC3)ccc12 [polymorph 1, 6-(Piperidin-4-yloxy)-2H-isoquinolin-1-one hydrochloride]
- time until transformation into the dihydrate at 95% relative humidity ([3]; listed as Phase 1, hydrochloride): about 15 min
- relative stability of the phase from maturation experiments [5, 10]: only a metastable polymorph
- solid-solid transition prior to melting [1, 10]: melted without preceding solid-solid transitions; also recorded: No transformation into another crystalline phase

Structure (SMILES): O=c1[nH]ccc2cc(OC3CCNCC3)ccc12 [polymorph 2, 6-(Piperidin-4-yloxy)-2H-isoquinolin-1-one hydrochloride]
- solid-solid transition prior to melting ([1]; listed as phase 2, hydrochloride): melted without preceding solid-solid transitions

Structure (SMILES): O=c1[nH]ccc2cc(OC3CCNCC3)ccc12 [polymorph 3, 6-(Piperidin-4-yloxy)-2H-isoquinolin-1-one hydrochloride]
- time until transformation into the dihydrate at 95% relative humidity [3, 11]: about 30 min
- relative humidity above which the phase changed into the dihydrate ([2]; cycle 1, sorption): above 80%
- relative stability at low relative humidity ([5]; at and around room temperature, less than about 10% relative humidity): the most stable phase
- relative stability of the phase from maturation experiments [5, 11]: the most stable anhydrous phase; also recorded: thermodynamically most stable anhydrous form
- solid-solid transition prior to melting [1, 11]: melted without preceding solid-solid transitions; also recorded: No transformation into another crystalline phase
- time to complete transformation into the dihydrate when suspended in water [8]: < 10 min

Structure (SMILES): O=c1[nH]ccc2cc(OC3CCNCC3)ccc12 [polymorph 4, 6-(Piperidin-4-yloxy)-2H-isoquinolin-1-one hydrochloride]
- time until transformation into the dihydrate at 95% relative humidity [3, 12]: about 15 min
- time to complete conversion to the dihydrate on storage [9]: ≤ 3 weeks
- relative stability of the phase from maturation experiments [5, 12]: only a metastable one
- solid-solid transition prior to melting [1, 12]: No transformation into another crystalline phase 1, 2 or 3; also recorded: melted without preceding solid-solid transitions
